Reference: patent US20260234139A1, “PGDH INHIBITORS AND METHODS OF MAKING AND USING” (Epirium Bio Inc., priority 2023, published 2026)

Legend:
A549 = A549 EC50 (cell assay, method not described); type: cell-based
15-PGDH/HPGD = biological target: T1, 15-PGDH/HPGD (Homo sapiens, UniProt P15428); experiment: hPGDH inhibitor screening biochemical assay; conditions: 10 nM enzyme, 15 μM Prostaglandin E2, 0.25 mM NAD, fluorescence ex/em 340/485 nm
T1 construct: purchased R&D System 5660-DH
T1 sequence (P15428 1-266): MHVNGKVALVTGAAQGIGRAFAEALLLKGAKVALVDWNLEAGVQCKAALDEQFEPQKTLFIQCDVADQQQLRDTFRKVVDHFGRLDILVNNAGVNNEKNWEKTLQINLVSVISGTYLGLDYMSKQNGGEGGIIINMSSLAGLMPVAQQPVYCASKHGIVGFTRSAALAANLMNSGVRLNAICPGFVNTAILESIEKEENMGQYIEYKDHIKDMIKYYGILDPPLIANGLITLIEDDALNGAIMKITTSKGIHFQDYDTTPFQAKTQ
Summary of the method: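 Recombinant 15-PGDH (10 nM) preincubated with compound 10 min at 37° C, then 15 μM PGE2 and 0.25 mM NAD⁺ added for 10 min at room temperature in 50 mM Tris-HCl pH 7.5, 0.01% Tween 20. NADH fluorescence at ex/em 340/485 nm; 10-point dose response.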

Row | Structure (SMILES) | EC50 (A549; Homo sapiens, A549, A549) | IC50 (15-PGDH/HPGD) | EC50 (A549; A549)
1 | CC(C)OCC[C@@H](O)c1cnc2c(ccn2-c2cccc(-c3nnc[nH]3)c2)c1 [Compound 41B] | < 100 nM | < 100 nM | –
2 | O=C(O)c1ccc(-n2ncc3cc([C@@H](O)COCC4CC4)cnc32)cc1 [Compound 107A] | < 100 nM | < 100 nM | –
3 | COC(C)(C)C[C@@H](O)c1cnc2c(ccn2-c2cccc(-c3nnc[nH]3)c2)c1 [Compound 54A] | < 100 nM | < 100 nM | –
4 | O[C@H](c1cnc2c(cnn2-c2cccc(-c3nnc[nH]3)c2)c1)C1COC1 [Compound 28B] | 100 to 1000 nM | < 100 nM | –
5 | O=C(O)c1ccc(-n2ncc3cc([C@@H](O)COC4CCC4)cnc32)cn1 [Compound 96B] | 100 to 1000 nM | < 100 nM | –
6 | O[C@@H](c1cnc2c(cnn2-c2cccc(-c3nnc[nH]3)c2)c1)C1COC1 [Compound 28A] | < 100 nM | < 100 nM | –
7 | CCOC1([C@H](O)c2cnc3c(cnn3-c3ccc4nc(N5CCOCC5)nn4c3)c2)CC1 [Compound 62A] | ≥ 1000 nM | ≥ 1000 nM | –
8 | CC(C)OC[C@H](O)c1cnc2c(cnn2-c2ccc(OCC(=O)O)cc2)c1 [Compound 78A] | ≥ 1000 nM | 100 to 1000 nM | –
9 | CC(C)(C)OC[C@@H](O)c1cnc2c(ccn2-c2cccc(-c3nnc[nH]3)c2)n1 [Compound 26B] | < 100 nM | < 100 nM | –
10 | CC(F)(F)[C@H](O)c1cnc2c(ccn2-c2cccc(-c3nnc[nH]3)c2)c1 [Compound 5B] | 100 to 1000 nM | 100 to 1000 nM | –
11 | CC(C)(C)OC[C@@H](O)c1cnc2c(cnn2-c2cccc(-c3nnc[nH]3)c2)c1 [Compound 32B] | < 100 nM | < 100 nM | –
12 | CC(C)OC[C@H](O)c1cnc2c(cnn2-c2ccc(C(=O)O)cc2)c1 [Compound 48A] | 100 to 1000 nM | < 100 nM | –
13 | CC(C)(O)C[C@H](O)c1cnc2c(cnn2-c2cccc(-c3nnc[nH]3)c2)c1 [Compound 43B] | < 100 nM | < 100 nM | –
14 | O[C@H](c1cnc2c(cnn2-c2cccc(-c3nnc[nH]3)c2)c1)C1CC2CC2C1 (some centres unmarked) [Compound 50B] | < 100 nM | < 100 nM | –
15 | O=C(O)c1ccc(-n2ncc3cc([C@H](O)COC4CCCC4)cnc32)cc1 [Compound 89B] | < 100 nM | < 100 nM | –
16 | CCOC(C)(C)C(O)c1cnc2c(cnn2-c2cccc(-c3nnc[nH]3)c2)c1 (single isomer, unassigned) [Compound 34B] | – | 100 to 1000 nM | ≥ 1000 nM
17 | O=C(O)c1ccc(-n2ccc3nc([C@H](O)C4CC(F)(F)C4)cnc32)cc1 [Compound 46A] | < 100 nM | < 100 nM | –
18 | CC(C)NC[C@H](O)c1cnc2c(ccn2-c2cccc(-c3nnc[nH]3)c2)n1 [Compound 22A] | ≥ 1000 nM | ≥ 1000 nM | –
19 | CC(C)(O)[C@H](O)c1cnc2c(cnn2-c2cccc(-c3nnc[nH]3)c2)c1 [Compound 33A, (R)-1-(1-(3-(4H-1,2,4-triazol-3-yl)phenyl)-1H-pyrazolo[3,4-b]pyridin-5-yl)-2-methylpropane-1,2-diol] | ≥ 1000 nM | 100 to 1000 nM | –
20 | O[C@H](c1cnc2c(cnn2-c2cccc(-c3nnc[nH]3)c2)c1)C1CCOCC1 [Compound 52A] | 100 to 1000 nM | < 100 nM | –
21 | O=C(O)[C@H]1CCN(c2ccc(-n3ncc4cc([C@@H](O)COC5CCC5)cnc43)cc2)C1 [Compound 87A] | ≥ 1000 nM | < 100 nM | –
22 | CC(C)OC[C@@H](O)c1cnc2c(ccn2-c2ccc(C(=O)O)cc2)n1 [Compound 49B] | 100 to 1000 nM | < 100 nM | –
23 | CSc1ccc(-n2ncc3cc([C@@H](O)COC4CCC4)cnc32)cc1 [Compound 119A] | 100 to 1000 nM | < 100 nM | –
24 | O=C(O)c1ccc(-n2ccc3nc([C@@H](O)COCC4CC4)cnc32)cc1 [Compound 112A] | ≥ 1000 nM | < 100 nM | –
25 | O=C(O)CCc1ccc(-n2ncc3cc([C@H](O)COC4CCCC4)cnc32)cc1F [Compound 88B] | 100 to 1000 nM | < 100 nM | –

Row | Structure (SMILES) | EC50 (A549; Homo sapiens, A549, A549) | IC50 (15-PGDH/HPGD) | EC50 (A549; A549)
26 | O=C(O)c1ccc(-n2ccc3nc([C@H](O)COCC4CC4)cnc32)cc1 [Compound 112B] | 100 to 1000 nM | < 100 nM | –
27 | Cc1cc(-n2ncc3cc([C@@H](O)COC4CCC4)cnc32)ccc1C(=O)O [Compound 95A] | < 100 nM | < 100 nM | –
28 | O=C(O)c1ccc(-n2ncc3cc(C(O)C4CC(F)(F)C4)cnc32)cc1 (single isomer, unassigned) [Compound 45A] | 100 to 1000 nM | < 100 nM | –
29 | CC1(OC[C@H](O)c2cnc3c(cnn3-c3ccc(C(=O)O)cc3)c2)CCC1 [Compound 90A] | 100 to 1000 nM | < 100 nM | –
30 | CSc1ccc(-n2ncc3cc([C@H](O)COC4CCC4)cnc32)cc1 [Compound 119B] | ≥ 1000 nM | ≥ 1000 nM | –
31 | CC(C)OC[C@@H](O)c1cnc2c(cnn2-c2ccc(OCC(=O)O)c(F)c2)c1 [Compound 74A] | 100 to 1000 nM | < 100 nM | –
32 | CC(C)(C)OC[C@H](O)c1cnc2c(ccn2-c2cccc(-c3nnc[nH]3)c2)n1 [Compound 26A] | 100 to 1000 nM | < 100 nM | –
33 | O=C(O)c1ccc(-n2ncc3cc([C@@H](O)COCC4(C(F)(F)F)CC4)cnc32)cc1 [Compound 113A] | ≥ 1000 nM | 100 to 1000 nM | –
34 | CCOC(C)(C)[C@H](O)c1cnc2c(cnn2-c2ccc(C(=O)O)cc2)c1 [Compound 53A] | 100 to 1000 nM | 100 to 1000 nM | –
35 | CC(C)OCC[C@H](O)c1cnc2c(cnn2-c2cccc(-c3nnc[nH]3)c2)c1 [Compound 44B] | 100 to 1000 nM | < 100 nM | –
36 | CC(C)(C)OC[C@H](O)c1cnc2c(cnn2-c2cccc(-c3nnc[nH]3)c2)c1 [Compound 32A] | ≥ 1000 nM | < 100 nM | –
37 | CC(C)OC[C@@H](O)c1cnc2c(cnn2-c2ccc3nc(N4CCOCC4)nn3c2)c1 [Compound 60A] | < 100 nM | < 100 nM | –
38 | O[C@H](c1cnc2c(cnn2-c2cccc(-c3nnc[nH]3)c2)c1)C1(OCC(F)F)CC1 [Compound 73A] | 100 to 1000 nM | < 100 nM | –
39 | O[C@H](c1cnc2c(cnn2-c2ccc3nc(N4CCOCC4)nn3c2)c1)C1COC1 [Compound 64A] | 100 to 1000 nM | 100 to 1000 nM | –
40 | O=C(O)c1ccc(-n2ncc3cc([C@H](O)COCC4CC4)cnc32)cc1 [Compound 107B] | ≥ 1000 nM | < 100 nM | –
41 | NC(=O)c1ccc(-n2ncc3cc([C@H](O)COC4CCC4)cnc32)cc1 [Compound 81A] | < 100 nM | < 100 nM | –
42 | CC(C)C[C@H](O)C(O)c1cnc2c(ccn2-c2cccc(-c3nnc[nH]3)c2)c1 (stereo in doubt) [Compound 3B, (1S,2S)-4-methyl-1-[1-[3-(4H-1,2,4-triazol-3-yl)phenyl]pyrrolo[2,3-b]pyridin-5-yl]pentane-1,2-diol] | – | < 100 nM | < 100 nM
43 | O[C@H](COC1CCC1)c1cnc2c(cnn2-c2ccc(N3CCOCC3)cc2)c1 [Compound 76B] | ≥ 1000 nM | ≥ 1000 nM | –
44 | CC(C)C[C@@H](O)C(O)c1cnc2c(ccn2-c2cccc(-c3nnc[nH]3)c2)c1 (stereo in doubt) [Compound 3A, (1R,2R)-4-methyl-1-[1-[3-(4H-1,2,4-triazol-3-yl)phenyl]pyrrolo[2,3-b]pyridin-5-yl]pentane-1,2-diol] | < 100 nM | < 100 nM | –
45 | O[C@@H](COC1CCC1)c1cnc2c(ccn2-c2cccc(-c3nnc[nH]3)c2)n1 [Compound 30B] | < 100 nM | < 100 nM | –
46 | O[C@H](COC1CCC1)c1cnc2c(cnn2-c2cccc(-c3nnc[nH]3)c2)c1 [Compound 24B] | < 100 nM | < 100 nM | –
47 | O=C(O)CCc1ccc(-n2ncc3cc([C@@H](O)COC4CCC4)cnc32)cc1F [Compound 82A] | 100 to 1000 nM | < 100 nM | –
48 | CC(C)(C)OC[C@@H](O)c1cnc2c(ccn2-c2cccc(-c3nnc[nH]3)c2)c1 [Compound 31B] | < 100 nM | < 100 nM | –
49 | CCCOC(C)(C)[C@H](O)c1cnc2c(cnn2-c2cccc(-c3nnc[nH]3)c2)c1 [Compound 57A] | ≥ 1000 nM | ≥ 1000 nM | –
